One assay deals with T1, CSF1R (FMS) (Homo sapiens, UniProt P07333).
T1 construct: purchased Invitrogen (Paisley, UK)
The assay is described as follows: CSF1R (FMS) kinase activity, Z'-LYTE biochemical assay (Invitrogen). To be noted: ATP at or close to Km, 60 minute reaction at room temperature, read-out: Inhibitor activity versus CSF-1. On the procedure: CSF1R (FMS) Kinase Activity
The ability of compounds to inhibit CSF1R (FMS) kinase activity was measured in an assay performed by Invitrogen (Paisley, UK). The Z′-LYTE™ biochemical assay employs a fluorescence-based, coupled-enzyme format and is based on the differential sensitivity of phosphorylated and non-phosphorylated peptides to proteolytic cleavage. The peptide substrate is labelled with two fluorophores—one at each end—that make up a FRET pair. In the primary reaction, the kinase transfers the gamma-phosphate of ATP to a single […] residue in a synthetic FRET-peptide. In the secondary reaction, a site-specific protease recognizes and cleaves non-phosphorylated FRET-peptides. Phosphorylation of FRET-peptides suppresses cleavage by the Development Reagent. Cleavage disrupts FRET between the donor (i.e. coumarin) and acceptor (i.e. fluorescein) fluorophores on the FRET-peptide, whereas uncleaved, phosphorylated FRET-peptides maintain FRET. A […] method, which calculates the ratio (the Emission Ratio) of donor emission to acceptor emission after excitation of the donor fluorophore at 400 nm, is used to quantitate reaction progress.
The final 10 μL Kinase Reaction consists of 0.12-12.3 ng CSF1R (FMS), 2 μM Tyr 01 Peptide and ATP in 50 mM HEPES pH 7.5, 0.01% BRIJ-35, 10 mM MgCl2, 1 mM EGTA. The assay is performed at an ATP concentration at, or close to, the Km. After the 60 minute Kinase Reaction incubation at room temperature, 5 μL of a 1:256 dilution of Development Reagent is added. The assay plate is incubated for a further 60 minutes at room temperature and read on a fluorescence plate reader.
Duplicate data points are generated from a ⅓ log dilution series of a stock solution of test compound in DMSO. Nine dilutions steps are made from a top concentration of 10 mM, and a ‘no compound’ blank is included. Data is collected and analysed using XLfit software from IDBS. The dose response curve is curve fitted to model number 205 (sigmoidal dose-response model). From the curve generated, the concentration giving 50% inhibition is determined and reported.

A further assay deals with MCP-1. As to the kind of experiment: MCSF-stimulation of human whole blood, MCP-1 levels by sandwich ELISA. The conditions noted are these: inhibitor 2 hours before MCSF 50 ng/ml, 22 hrs, MCP-1 in cell-free supernatants, read-out: Inhibitor activity versus MCP-1. It is filed as cell-based. As for the experimental part: Macrophage Colony-Stimulating Factor (MCSF)-Stimulation of Human Whole Blood
Whole blood was taken by venous puncture using heparinised vacutainers (Becton Dickinson) and diluted in an equal volume of RPMI1640 tissue culture media (Sigma). 100 μl was plated in V-bottomed 96 well tissue culture treated plates. 2 hours after the addition of the inhibitor in 100 μl of RPMI1640 media, the blood was stimulated with MCSF (Peprotech: #300-25-10 uG) at a final concentration of 50 ng/ml and incubated at 37° C. in 5% CO2 for 22 hrs. MCP-1 levels were measured from cell-free supernatants by sandwich ELISA developed from MCP-1/CCL2 Duoset (R&D Systems #DY279). Additional reagents required for ELISA were purchased from Sigma, (BSA: A3059, 10×PBS: D1408, Tween20: P5927) R&D Systems, (colour reagent: #DY999 and stop solution: #DY994) and Costar (96-well EIA plates: #2592). Assays were carried out following the manufacturer's instructions with the following modifications: Cell-free supernatants were diluted 30:70 in reagent diluent before assay. All incubations except capture antibody were carried out with shaking at 550 rpm. 3 washes were carried out between steps, and incubation times were blocking 1.5 hr, sample/standard and detection antibody incubations 2 hr, HRP incubation 30 min, colour development 20 min. • IC50 values were allocated to one of five ranges as follows: • Range A: IC50<100 nM • Range B: 100 nM<IC50<300 nM • Range C: 300 nM<1050<1000 nM • Range D: 1000 nM<IC50<5000 nM • Range E: IC50>5000 nM • NT=not tested
(ELISA stands for enzyme-linked immunosorbent assay.)

Each structure is given as a SMILES string.

We go through 20 compounds from patent US9604940B2 (Chroma Therapeutics Ltd., priority 2012, dated 2017).

T1 sequence (P07333 20-972): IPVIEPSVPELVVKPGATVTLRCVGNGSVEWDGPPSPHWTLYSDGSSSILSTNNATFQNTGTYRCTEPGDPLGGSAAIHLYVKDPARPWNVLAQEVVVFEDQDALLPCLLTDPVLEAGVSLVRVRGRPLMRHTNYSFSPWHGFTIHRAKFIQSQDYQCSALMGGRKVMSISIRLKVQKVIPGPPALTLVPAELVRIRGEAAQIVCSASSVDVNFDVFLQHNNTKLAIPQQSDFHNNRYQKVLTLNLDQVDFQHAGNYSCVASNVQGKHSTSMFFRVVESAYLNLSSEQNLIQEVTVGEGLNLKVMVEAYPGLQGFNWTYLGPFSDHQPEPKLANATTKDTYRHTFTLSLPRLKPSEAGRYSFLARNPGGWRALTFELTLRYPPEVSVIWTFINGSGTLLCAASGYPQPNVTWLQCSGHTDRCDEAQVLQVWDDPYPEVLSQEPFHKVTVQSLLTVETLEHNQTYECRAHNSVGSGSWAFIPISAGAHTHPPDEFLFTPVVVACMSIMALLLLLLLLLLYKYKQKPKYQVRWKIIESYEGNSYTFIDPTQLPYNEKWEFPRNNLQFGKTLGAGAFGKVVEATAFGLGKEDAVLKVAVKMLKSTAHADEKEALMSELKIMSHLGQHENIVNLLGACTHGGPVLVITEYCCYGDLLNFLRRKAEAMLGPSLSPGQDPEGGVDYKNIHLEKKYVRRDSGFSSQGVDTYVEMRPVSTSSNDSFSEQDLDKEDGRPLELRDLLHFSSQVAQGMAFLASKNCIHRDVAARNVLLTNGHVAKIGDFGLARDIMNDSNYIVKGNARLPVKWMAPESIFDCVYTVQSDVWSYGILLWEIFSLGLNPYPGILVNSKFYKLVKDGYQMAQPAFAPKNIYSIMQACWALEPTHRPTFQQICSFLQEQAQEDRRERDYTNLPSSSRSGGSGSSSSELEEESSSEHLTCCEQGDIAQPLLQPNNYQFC

As for `Nc1ncc(-c2ccc(CN3CCN[C@@H](C(=O)OC4CCCC4)C3)cc2)nc1NCc1c(Cl)cccc1Cl` [Example 11, Cyclopentyl (2R)-4-(4-{5-amino-6-[(2,6-dichlorobenzyl)amino]pyrazin-2-yl}benzyl)piperazine-2-carboxylate], the figures for the IC50 on CSF1R (FMS) and with MCP-1 were 300 to 1000 nM and under 100 nM, respectively.
On the same counts, the results for `Nc1ncc(-c2ccc(CNC3CCN[C@@H](C(=O)OC4CCCC4)C3)cc2)nc1NCc1c(F)cccc1F` (stereo partly drawn) [Example 14, Cyclopentyl (2R)-4-[(4-{5-amino-6-[(2,6-difluorobenzyl)amino]pyrazin-2-yl}benzyl)amino]piperidine-2-carboxylate di-formate] are 100 to 300 nM and 300 to 1000 nM.
On the same counts, the results for `Nc1ncc(-c2ccc(CNC3CCN[C@@H](C(=O)OC4CCCC4)C3)c(Cl)c2)nc1NCc1c(Cl)cccc1Cl` (stereo partly drawn) [Example 18, Cyclopentyl (2R)-4-[(4-{5-amino-6-[(2,6-dichlorobenzyl)amino]pyrazin-2-yl}-2-chlorobenzyl)amino]piperidine-2-carboxylate] are 100 to 300 nM and 100 to 300 nM.
For `Cc1cc(-c2cnc(N)c(NCc3c(Cl)cccc3Cl)n2)ccc1CNC1CCN[C@@H](C(=O)OC2CCCC2)C1` (stereo partly drawn) [Example 19, Cyclopentyl (2R)-4-[(4-{5-amino-6-[(2,6-dichlorobenzyl)amino]pyrazin-2-yl}-2-methylbenzyl)amino]piperidine-2-carboxylate] the same measures were under 100 nM and under 100 nM.
For the compound `CCc1cc(-c2cnc(N)c(NCc3c(Cl)cccc3Cl)n2)ccc1CN1CCNC(C(=O)OC2CCCC2)C1` (stereo not shown) [Example 20, Cyclopentyl 4-(4-{5-amino-6-[(2,6-dichlorobenzyl)amino]pyrazin-2-yl}-2-ethylbenzyl)piperazine-2-carboxylate], the IC50 on CSF1R (FMS) was 1000 to 5000 nM; in the assay on MCP-1, under 100 nM.
For `CC(C)(C)OC(=O)[C@H]1CC(NCc2ccc(-c3cnc(N)c(NCc4c(Cl)cccc4Cl)n3)cc2)CCN1` (stereo partly drawn) [Example 21, tert-Butyl (2R)-4-[(4-{5-amino-6-[(2,6-dichlorobenzyl)amino]pyrazin-2-yl}benzyl)amino]piperidine-2-carboxylate] the same measures were under 100 nM and 300 to 1000 nM.
For `CC(C)(C)OC(=O)[C@@H]1CC(NCc2ccc(-c3cnc(N)c(NCc4c(Cl)cccc4Cl)n3)cc2)CCN1` (stereo partly drawn) [Example 22, tert-Butyl (2S)-4-[(4-{5-amino-6-[(2,6-dichlorobenzyl)amino]pyrazin-2-yl}benzyl)amino]piperidine-2-carboxylate] the same measures were under 100 nM and 300 to 1000 nM.
On the same counts, the results for `CC(C)(C)OC(=O)C1CN(Cc2ccc(-c3cnc(N)c(NCc4c(Cl)cccc4Cl)n3)cc2)CCN1` (stereo not shown) [Example 23, tert-Butyl 4-(4-{5-amino-6-[(2,6-dichlorobenzyl)amino]pyrazin-2-yl}benzyl)piperazine-2-carboxylate] are 300 to 1000 nM and 300 to 1000 nM.
For the compound `CC(C)(C)OC(=O)[C@H]1CC(NCc2ccc(-c3cnc(N)c(NCc4c(Cl)cccc4Cl)n3)cc2Cl)CCN1` (stereo partly drawn) [Example 25, tert-Butyl (2R)-4-[(4-{5-amino-6-[(2,6-dichlorobenzyl)amino]pyrazin-2-yl}-2-chlorobenzyl)amino]piperidine-2-carboxylate], the results for the IC50 at CSF1R (FMS) and with MCP-1 were 100 to 300 nM and 300 to 1000 nM, respectively.
For `Cc1cc(-c2cnc(N)c(NCc3c(Cl)cccc3Cl)n2)ccc1CNC1CCN[C@@H](C(=O)OC(C)(C)C)C1` (stereo partly drawn) [Example 26, tert-Butyl (2R)-4-[(4-{5-amino-6-[(2,6-dichlorobenzyl)amino]pyrazin-2-yl}-2-methylbenzyl)amino]piperidine-2-carboxylate], the IC50 on CSF1R (FMS) was under 100 nM; in the assay on MCP-1 it was 300 to 1000 nM.
With `CCN(Cc1ccc(-c2cnc(N)c(NCc3c(Cl)cccc3Cl)n2)cc1)C1CCN[C@@H](C(=O)OC2CCCC2)C1` (stereo partly drawn) [Example 27, Cyclopentyl (2R)-4-[(4-{5-amino-6-[(2,6-dichlorobenzyl)amino]pyrazin-2-yl}benzyl)(ethyl)amino]piperidine-2-carboxylate], the IC50 at CSF1R (FMS) was 100 to 300 nM; in the assay on MCP-1 it was under 100 nM.
For the compound `CN(Cc1ccc(-c2cnc(N)c(NCc3c(Cl)cccc3Cl)n2)cc1)C1CCN[C@@H](C(=O)OC2CCCC2)C1` (stereo partly drawn) [Example 28, Cyclopentyl (2R)-4-[(4-{5-amino-6-[(2,6-dichlorobenzyl)amino]pyrazin-2-yl}benzyl)(methyl)amino]piperidine-2-carboxylate], the values for the IC50 on CSF1R (FMS) and in the assay on MCP-1 were 100 to 300 nM and under 100 nM, respectively.
On the same counts, the results for `CCN(Cc1ccc(-c2cnc(N)c(NCc3c(Cl)cccc3Cl)n2)cc1)C1CCN[C@@H](C(=O)OC(C)(C)C)C1` (stereo partly drawn) [Example 30, tert-Butyl (2R)-4-[(4-{5-amino-6-[(2,6-dichlorobenzyl)amino]pyrazin-2-yl}benzyl)(ethyl)amino]piperidine-2-carboxylate] are 100 to 300 nM and 100 to 300 nM.
On the same counts, the results for `CC(=O)N(Cc1ccc(-c2cnc(N)c(NCc3c(Cl)cccc3Cl)n2)cc1)C1CCN[C@@H](C(=O)OC2CCCC2)C1` (stereo partly drawn) [Example 31, Cyclopentyl (2R)-4-[acetyl(4-{5-amino-6-[(2,6-dichlorobenzyl)amino]pyrazin-2-yl}benzyl)amino]piperidine-2-carboxylate] are 100 to 300 nM and under 100 nM.
For `Nc1ncc(-c2cccc(C(=O)NC3CCN[C@@H](C(=O)OC4CCCC4)C3)c2)nc1NCc1c(Cl)cccc1Cl` (stereo partly drawn) [Example 32, Cyclopentyl (2R)-4-[(3-{5-amino-6-[(2,6-dichlorobenzyl)amino]pyrazin-2-yl}benzoyl)amino]piperidine-2-carboxylate] the same measures were 100 to 300 nM and 1000 to 5000 nM.
For the compound `CC(C)(C)OC(=O)[C@H]1CC(NC(=O)c2cccc(-c3cnc(N)c(NCc4c(Cl)cccc4Cl)n3)c2)CCN1` (stereo partly drawn) [Example 33, tert-Butyl (2R)-4-[(3-{5-amino-6-[(2,6-dichlorobenzyl)amino]pyrazin-2-yl}benzoyl)amino]piperidine-2-carboxylate], the IC50 lay in the range of 100 to 300 nM on CSF1R (FMS) and 1000 to 5000 nM in the assay on MCP-1.
For `Nc1ncc(-c2cccc(CNC3CCN[C@@H](C(=O)OC4CCCC4)C3)c2)nc1NCc1c(Cl)cccc1Cl` (stereo partly drawn) [Example 34, Cyclopentyl (2R)-4-[(3-{5-amino-6-[(2,6-dichlorobenzyl)amino]pyrazin-2-yl}benzyl)amino]piperidine-2-carboxylate] the same measures were under 100 nM and 100 to 300 nM.
Turning to `Nc1ncc(-c2cccc(CNC3CCN[C@H](C(=O)OC4CCCC4)C3)c2)nc1NCc1c(Cl)cccc1Cl` (stereo partly drawn) [Example 35, Cyclopentyl (2S)-4-[(3-{5-amino-6-[(2,6-dichlorobenzyl)amino]pyrazin-2-yl}benzyl)amino]piperidine-2-carboxylate di-formate], the IC50 at CSF1R (FMS) is under 100 nM; with MCP-1, 300 to 1000 nM.
For `Nc1ncc(-c2cccc(CN3CCN[C@H](C(=O)OC4CCCC4)C3)c2)nc1NCc1c(Cl)cccc1Cl` [Example 36, Cyclopentyl (2S)-4-(3-{5-amino-6-[(2,6-dichlorobenzyl)amino]pyrazin-2-yl}benzyl)piperazine-2-carboxylate] the same measures were 300 to 1000 nM and 100 to 300 nM.
On the same counts, the results for `Nc1ncc(-c2cccc(CN3CCN[C@@H](C(=O)OC4CCCC4)C3)c2)nc1NCc1c(Cl)cccc1Cl` [Example 37, Cyclopentyl (2R)-4-(3-{5-amino-6-[(2,6-dichlorobenzyl)amino]pyrazin-2-yl}benzyl)piperazine-2-carboxylate] are 300 to 1000 nM and under 100 nM.
